In brackets after ≈: the same amount, converted by molar mass.
Columns and labels:
E. coli ATCC 25922 [1] = experiment: Resistance development study, serial passages; type: cell-based, Escherichia coli; conditions: 80 serial passages at sub-inhibitory concentration (0.5-fold MIC)
Description: (§1) The ability of LI14 peptide to induce resistance was studied as previously described. Resistance to the therapeutically important drugs rifampicin and ciprofloxacin was measured using S. aureus ATCC 29213 and E. coli ATCC 25922 as test strains. The middle and final MICs were monitored after eighty such serial passages exposed to the tested medicines (0.5-fold MIC), and the fold change in MIC increase was recorded.

MRSA T144 [2] = experiment: Checkerboard assay with LI14; type: cell-based, Staphylococcus aureus
Description: (§2) Through checkerboard assay using two-fold serially diluted drugs (8 × 8 matrix), we evaluated the synergistic effects of LI14 with different mechanisms of antibiotics. The absorbance of cultures at 600 nm was determined by a Microplate reader after 18 h of incubation with (1.5 × 10^6 CFUs/mL) bacterial suspension. The FIC index (FICI) was calculated by performing two biological replicates for each combination. The formula is as follows: FIC index = FICIa + FICIb = MICab/MICa + MICba/Mb. An FIC index of ≤0.5 indicates synergy.
(§3) a/bMICs of antibiotics in the absence or presence of ¼ MIC of LI14.
(§4) cDegree of antibiotics potentiation in the presence of ¼ MIC of LI14.
(§5) –, none of potentiation activity.

MDR E. coli B2 = experiment: Checkerboard assay with LI14; type: cell-based, Escherichia coli; conditions: for FIC index: antibiotic in combination with LI14, checkerboard 8 × 8, 18 h, ≤0.5 = synergy; for Potentiation: antibiotic potentiation in the presence of ¼ MIC of LI14; for MICa of antibiotic: in the absence of LI14; for MICb of antibiotic: in the presence of ¼ MIC of LI14
Description: as §2, §3, §4, §5

[3] = tested on: sensitive E. coli ATCC 25922; experiment: Checkerboard assay with LI14; type: cell-based, Escherichia coli; conditions: for FIC index: antibiotic in combination with LI14, checkerboard; for MICa of antibiotic: in the absence of LI14
Description: as §2, §3, §4, §5

E. coli DH5α (PUC19) = experiment: MIC broth microdilution; type: cell-based, Escherichia coli; conditions: Escherichia coli; engineered E. coli DH5α (PUC19); MHB, 16-18 h, 37 °C; read-out: MIC
Description: (§6) An antimicrobial activity study was conducted on all peptides against a panel of laboratory bacteria, including ATCC source and clinical isolates with resistance determinants. According to CLSI2021 guidelines, we tested the minimum inhibitory concentrations (MICs) of peptides using standard broth micro-dilutions. Briefly, bacteria grown to exponential phase were diluted in 1:1000 to MHB, subsequently, equivalent amounts of bacterial suspension (1.5 × 10^6 CFUs/mL) were mixed with different concentrations of peptides in a sterilized 96-well microtiter plate (Corning).

[4] = tested on: E. coli DH5α (PUC19-mcr-1); experiment: MIC broth microdilution; type: cell-based, Escherichia coli; conditions: Escherichia coli
Description: as §6

[5] = tested on: E. coli B2 (blaNDM-5 + mcr-1); experiment: microbe, parasite or virus in culture; type: cell-based, Escherichia coli; conditions: Escherichia coli; E. coli B2 (blaNDM-5 + mcr-1); MHB, 16-18 h, 37 °C; read-out: MIC
Description: as §6

E. coli ATCC 25922 [6] = experiment: microbe, parasite or virus in culture; type: cell-based, Escherichia coli; conditions: Escherichia coli, ATCC25922; E. coli ATCC 25922; MHB, 16-18 h, 37 °C; read-out: MIC
Description: as §6

[7] = tested on: E. coli DH5α (PUC19-tet(X4)); experiment: MIC broth microdilution; type: cell-based; conditions: Escherichia coli
Description: as §6

E. coli G92 (mcr-1) = experiment: microbe, parasite or virus in culture; type: cell-based, Escherichia coli; conditions: Escherichia coli
Description: as §6

E. coli CP131 (mcr-3) = experiment: microbe, parasite or virus in culture; type: cell-based, Escherichia coli; conditions: Escherichia coli
Description: as §6

E. coli B3-1 (tet(X4)) = experiment: microbe, parasite or virus in culture; type: cell-based, Escherichia coli; conditions: Escherichia coli; E. coli B3-1 (tet(X4)); MHB, 16-18 h, 37 °C; read-out: MIC
Description: as §6

E. coli C3 (blaNDM-1) = experiment: microbe, parasite or virus in culture; type: cell-based, Escherichia coli; conditions: Escherichia coli; E. coli C3 (blaNDM-1); MHB, 16-18 h, 37 °C; read-out: MIC
Description: as §6

E. coli 1F28 (tet(X4)) = experiment: microbe, parasite or virus in culture; type: cell-based, Escherichia coli; conditions: Escherichia coli; E. coli 1F28 (tet(X4)); MHB, 16-18 h, 37 °C; read-out: MIC
Description: as §6

E. coli G6 (blaNDM-5) = experiment: microbe, parasite or virus in culture; type: cell-based, Escherichia coli; conditions: Escherichia coli; E. coli G6 (blaNDM-5); MHB, 16-18 h, 37 °C; read-out: MIC
Description: as §6

S. aureus ATCC 29213 [8] = experiment: microbe, parasite or virus in culture; type: cell-based, Staphylococcus aureus; conditions: Staphylococcus aureus, ATCC29213; S. aureus ATCC 29213; MHB, 16-18 h, 37 °C; read-out: MIC
Description: as §6

MRSA T144 [9] = experiment: microbe, parasite or virus in culture; type: cell-based, Staphylococcus aureus; conditions: Staphylococcus aureus; MRSA T144; MHB, 16-18 h, 37 °C; read-out: MIC
Description: as §6

[10] = tested on: K. pneumoniae D120 (mcr-8); experiment: microbe, parasite or virus in culture; type: cell-based, Klebsiella pneumoniae; conditions: Klebsiella pneumoniae; K. pneumoniae D120 (mcr-8); MHB, 16-18 h, 37 °C; read-out: MIC
Description: as §6

[11] = tested on: K. pneumoniae ATCC 700603; experiment: microbe, parasite or virus in culture; type: cell-based, Klebsiella pneumoniae; conditions: Klebsiella pneumoniae, ATCC700603; K. pneumoniae ATCC 700603; MHB, 16-18 h, 37 °C; read-out: MIC
Description: as §6

P. aeruginosa PA14 = experiment: microbe, parasite or virus in culture; type: cell-based, Pseudomonas aeruginosa; conditions: Pseudomonas aeruginosa; P. aeruginosa PA14; MHB, 16-18 h, 37 °C; read-out: MIC
Description: as §6

[12] = tested on: P. cibarius HNCF44W (blaNDM-1 + tet(X6)); experiment: organism not typed; type: cell-based; conditions: P. cibarius HNCF44W (blaNDM-1 + tet(X6)); MHB, 16-18 h, 37 °C; read-out: MIC
Description: as §6

[13] = tested on: S. aureus 215 (cfr + LZD^R); experiment: MIC broth microdilution; type: cell-based, Staphylococcus aureus; conditions: Staphylococcus aureus
Description: as §6

S. aureus G16 (RIF^R) = experiment: MIC broth microdilution; type: cell-based, Staphylococcus aureus; conditions: Staphylococcus aureus
Description: as §6

[14] = tested on: S. enteritidis ATCC 13076; experiment: microbe, parasite or virus in culture; type: cell-based; conditions: Salmonella enterica; S. enteritidis ATCC 13076; MHB, 16-18 h, 37 °C; read-out: MIC
Description: as §6

E. faecalis 1F-1 = experiment: microbe, parasite or virus in culture; type: cell-based; conditions: Enterococcus faecalis, 1F1; E. faecalis 1F-1; MHB, 16-18 h, 37 °C; read-out: MIC
Description: as §6

[15] = tested on: E. faecalis A4 (VRE, VanA); experiment: microbe, parasite or virus in culture; type: cell-based; conditions: Enterococcus faecalis; E. faecalis A4 (VRE, VanA); MHB, 16-18 h, 37 °C; read-out: MIC
Description: as §6

A. baumannii ATCC 19609 = experiment: microbe, parasite or virus in culture; type: cell-based, Acinetobacter baumannii; conditions: Acinetobacter baumannii, ATCC19609; A. baumannii ATCC 19609; MHB, 16-18 h, 37 °C; read-out: MIC
Description: as §6

[16] = tested on: A. baumannii C222 (tet(X6)); experiment: microbe, parasite or virus in culture; type: cell-based, Acinetobacter baumannii; conditions: Acinetobacter baumannii
Description: as §6

E. faecium 5F-10 = experiment: microbe, parasite or virus in culture; type: cell-based, Enterococcus faecium; conditions: Enterococcus faecium, 5F10; E. faecium 5F-10; MHB, 16-18 h, 37 °C; read-out: MIC
Description: as §6

MRSA 1530 = experiment: microbe, parasite or virus in culture; type: cell-based, Staphylococcus aureus; conditions: Staphylococcus aureus; MRSA 1530; MHB, 16-18 h, 37 °C; read-out: MIC
Description: as §6

MRSA 1518 = experiment: microbe, parasite or virus in culture; type: cell-based, Staphylococcus aureus; conditions: Staphylococcus aureus; MRSA 1518; MHB, 16-18 h, 37 °C; read-out: MIC
Description: as §6

S. aureus ATCC 29213 [17] = experiment: Resistance development study, serial passages; type: cell-based, Staphylococcus aureus; conditions: 80 serial passages at sub-inhibitory concentration (0.5-fold MIC)
Description: as §1

E. coli B2 = experiment: Neutropenic mouse thigh infection model; type: in vivo, CD-1 mice; conditions: RIF 20 mg/kg i.p., 48 h
Description: Female CD-1 mice (n = 6 biologically independent animals per group) were first given cyclophosphamide (two consecutive injections of 150 and 100 mg kg^−1 at 4 and 1 day before infection) to construct neutropenia models. The mice’s right thighs were then injected with 100 μL MRSA T144 or E. coli B2 suspensions (10^5 CFUs per mouse). Post-infection of 1 h, 100 μL LI14 peptide (10 or 20 mg/kg), ampicillin/rifampicin (20 mg/kg) or a combination of LI14 with ampicillin/ rifampicin (10 + 20 mg/kg) were given by intraperitoneal injection. All mice were euthanized 48 h after drug administration, and right thigh muscle tissue was removed aseptically, homogenized, serially diluted, and plated on MHA to qualify bacterial loads after overnight incubation at 37 °C.

[18] = serum versus MHB broth medium; cited from earlier work
From the text: Amphiphilicity, ɑ-helicity and appropriate peptide chain length are key factors for AMP activity.

[19] = in the presence of ¼ MIC of LI14

## O=C(O)c1cn(C2CC2)c2cc(N3CCNCC3)c(F)cc2c1=O [Ciprofloxacin]
E. coli ATCC 25922 [1]
  Increase in MIC after serial passages: 256 fold
MRSA T144 [2]; antibiotic in combination with LI14, checkerboard
  FIC index: 2.0
MRSA T144 [2]; in the absence of LI14
  MICa of antibiotic: 2 µg/mL
MRSA T144 [2]; [19]
  MICb of antibiotic: 2 µg/mL
MDR E. coli B2
  FIC index: 0.188
  Potentiation: 8 fold
  MICa of antibiotic: 32 µg/mL
  MICb of antibiotic: 4 µg/mL
[3]
  FIC index: 1.5
  MICa of antibiotic: 0.008 µg/mL
[3]; [19]
  MICb of antibiotic: 0.008 µg/mL

## C[C@@H](O)[C@H]1C(=O)N2C(C(=O)O)=C(S[C@@H]3CN[C@H](C(=O)N(C)C)C3)[C@H](C)[C@H]12 [Meropenem]
E. coli DH5α (PUC19)
  MIC: < 0.125 µg/mL
[4]
  MIC: < 0.125 µg/mL
[5]
  MIC: 32 µg/mL
E. coli ATCC 25922 [6]
  MIC: 0.03 µg/mL (≈ 0.0782 µM)
[7]
  MIC: < 0.125 µg/mL
E. coli G92 (mcr-1)
  MIC: < 0.125 µg/mL
E. coli CP131 (mcr-3)
  MIC: < 0.125 µg/mL
E. coli B3-1 (tet(X4))
  MIC: < 0.0625 µg/mL
E. coli C3 (blaNDM-1)
  MIC: 8 µg/mL (≈ 20.9 µM)
E. coli 1F28 (tet(X4))
  MIC: 0.25 µg/mL (≈ 0.652 µM)
E. coli G6 (blaNDM-5)
  MIC: 64 µg/mL (≈ 167 µM)
MDR E. coli B2
  FIC index: 2
  MICa of antibiotic: 32 µg/mL
  MICb of antibiotic: 32 µg/mL
S. aureus ATCC 29213 [8]
  MIC: < 0.0625 µg/mL
MRSA T144 [9]
  MIC: 1 µg/mL (≈ 2.61 µM)
[10]
  MIC: < 0.0625 µg/mL
[11]
  MIC: < 0.0625 µg/mL
P. aeruginosa PA14
  MIC: 32 µg/mL (≈ 83.4 µM)
[12]
  MIC: > 16 µg/mL
[13]
  MIC: 1 µg/mL (≈ 2.61 µM)
S. aureus G16 (RIF^R)
  MIC: 2 µg/mL (≈ 5.22 µM)
[14]
  MIC: < 0.0625 µg/mL
E. faecalis 1F-1
  MIC: 8 µg/mL (≈ 20.9 µM)
[15]
  MIC: > 64 µg/mL
A. baumannii ATCC 19609
  MIC: < 0.0625 µg/mL
[16]
  MIC: < 0.125 µg/mL
E. faecium 5F-10
  MIC: 8 µg/mL (≈ 20.9 µM)
MRSA 1530
  MIC: 0.25 µg/mL (≈ 0.652 µM)
MRSA 1518
  MIC: 0.25 µg/mL (≈ 0.652 µM)

## CO[C@H]1/C=C/O[C@@]2(C)Oc3c(C)c(O)c4c(O)c(c(/C=N/N5CCN(C)CC5)c(O)c4c3C2=O)NC(=O)/C(C)=C\C=C\[C@H](C)[C@H](O)[C@@H](C)[C@@H](O)[C@@H](C)[C@H](OC(C)=O)[C@@H]1C [Rifampicin]
MDR E. coli B2
  FIC index: < 0.078
  Potentiation: > 64 fold
  MICa of antibiotic: > 128 µg/mL
  MICb of antibiotic: 2 µg/mL
[3]
  FIC index: < 0.078
  MICa of antibiotic: > 128 µg/mL
[3]; [19]
  MICb of antibiotic: 2 µg/mL
  Potentiation: > 64 fold
S. aureus ATCC 29213 [17]
  Increase in MIC after serial passages: 1024 fold
E. coli B2; animal 1
  Bacterial load in thigh: 6.89 Log10CFUs/thigh
E. coli B2; animal 2
  Bacterial load in thigh: 6.97 Log10CFUs/thigh
E. coli B2; animal 3
  Bacterial load in thigh: 7.76 Log10CFUs/thigh
E. coli B2; animal 4
  Bacterial load in thigh: 7.96 Log10CFUs/thigh
E. coli B2; animal 5
  Bacterial load in thigh: 6.83 Log10CFUs/thigh
E. coli B2; animal 6
  Bacterial load in thigh: 6.97 Log10CFUs/thigh

## LL-37: human AMP LL-37, previously reported peptide antibiotic
[18]
  Change of MIC value in serum: greater than 128 fold

Reference: article PMC9452538, “The antimicrobial peptide LI14 combats multidrug-resistant bacterial infections” (Communications Biology, 2022)
